According to ChEMBL document CHEMBL1201862, “PubChem BioAssay data set” (2004):
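96-well plates; 48 h exposure; 5 concentrations. Endpoints by linear interpolation between flanking doses. Not reached: highest tested concentration assigned. Here, GI50 denotes the concentration required for 50% inhibition of growth.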 Activity calls are given as the source filed them. Cut-off read from the data, not from the text of the source: active = GI50 up to about 1.1 µM and inactive = higher.

Legend:
Test in all cases: inhibition of tumour cell growth, NCI panel, 48 h
[1] = test system: MDA-MB-231
[2] = test system: SNB-19
[3] = test system: RXF 393
[4] = test system: DU-145
[5] = test system: MDA-N
[6] = test system: 786-0
[7] = test system: NCI-H23
[8] = test system: MDA-MB-435
[9] = test system: HOP-92
[10] = test system: HCT-15
[11] = test system: Hs-578T
[12] = test system: NCI-H522
[13] = test system: SF-295
[14] = test system: T47D
[15] = test system: ACHN
[16] = test system: NCI-H226
[17] = test system: BT-549
[18] = test system: KM-20L2
[19] = test system: DLD-1

Compound	GI50 [1]	GI50 [2]	GI50 [3]	GI50 [4]	GI50 [5]	GI50 [6]	GI50 [7]	GI50 [8]	GI50 [9]	GI50 [10]	GI50 [11]	GI50 [12]	GI50 [13]	GI50 [14]	GI50 [15]	GI50 [16]	GI50 [17]	GI50 [18]	GI50 [19]
COC(=O)CCC(C)C1CCC2C3CCC4CC5CCC4(C)C3(O5)C(Br)C(Br)C12C (centres undefined)	> 100 µM (inactive)	> 100 µM (inactive)	> 100 µM (inactive)	> 100 µM (inactive)	> 100 µM (inactive)	> 100 µM (inactive)	> 100 µM (inactive)	> 100 µM (inactive)	> 100 µM (inactive)	> 100 µM	> 100 µM (inactive)	48.2 µM (inactive)	> 100 µM (inactive)	61.9 µM (inactive)	> 100 µM (inactive)	45.4 µM (inactive)	> 100 µM (inactive)		
O=c1cc(-c2cc(O)c(O)c(-c3c(O)cc4oc(-c5ccc(O)c(O)c5)cc(=O)c4c3O)c2)oc2cc(O)cc(O)c12	> 25 µM (inactive)		> 25 µM (inactive)	> 25 µM (inactive)	> 25 µM (inactive)		> 25 µM (inactive)	> 25 µM (inactive)	> 25 µM (inactive)	> 25 µM	> 25 µM (inactive)		> 25 µM (inactive)	11.3 µM (inactive)		> 25 µM (inactive)	> 25 µM (inactive)		
C1CC2=C(C1)[Se]C(=C1Sc3nsnc3S1)[Se]2	> 100 µM (inactive)	> 100 µM (inactive)		> 100 µM (inactive)	21.7 µM (inactive)	> 100 µM (inactive)	> 100 µM (inactive)	39 µM (inactive)	> 100 µM (inactive)	48.3 µM	> 100 µM (inactive)	> 100 µM (inactive)	> 100 µM (inactive)	> 100 µM (inactive)	> 100 µM (inactive)	> 100 µM (inactive)	> 100 µM (inactive)		
CCOC(=O)Cn1c(=O)c2cc(C)cc3c(Cl)nc4c(OC)c(OC)cc1c4c32	> 100 µM (inactive)	> 100 µM (inactive)	51.1 µM (inactive)	> 100 µM (inactive)	> 100 µM (inactive)	29.7 µM (inactive)	> 100 µM (inactive)	> 100 µM (inactive)	41.5 µM (inactive)	> 100 µM	31.8 µM (inactive)	> 100 µM (inactive)	> 100 µM (inactive)		> 100 µM (inactive)	> 100 µM (inactive)	56.6 µM (inactive)		
COc1ccc(OC)c(SC(CC(=O)c2ccccc2)c2ccccc2)c1 (centres undefined)	7.45 µM (inactive)	14.2 µM (inactive)	15.8 µM (inactive)	7.85 µM (inactive)		15.6 µM (inactive)	18.6 µM (inactive)	13 µM (inactive)	33.7 µM (inactive)	17.5 µM	28.4 µM (inactive)	14.6 µM (inactive)	15.2 µM (inactive)	10.1 µM (inactive)	19.6 µM (inactive)	14.3 µM (inactive)			
NNC(=O)CCc1ccc2ccc3ccccc3c2c1	> 100 µM (inactive)	85.7 µM (inactive)	94.4 µM (inactive)	> 100 µM (inactive)	> 100 µM (inactive)	94.4 µM (inactive)	> 100 µM (inactive)	> 100 µM (inactive)	58.7 µM (inactive)	82 µM	57.7 µM (inactive)	28.8 µM (inactive)	78.7 µM (inactive)	70.6 µM (inactive)	> 100 µM (inactive)	15.9 µM (inactive)	55.8 µM (inactive)		
CN1CCN(c2cc(-c3cc4ccccc4o3)oc(=O)c2C#N)CC1		> 100 µM (inactive)	72.6 µM (inactive)				> 100 µM (inactive)			99.8 µM			> 100 µM (inactive)		59 µM (inactive)	14.2 µM (inactive)		89.5 µM (inactive)	76 µM (inactive)
COC(=O)[C@@H]1C=C[C@H](NC(C)=O)C1	> 100 µM (inactive)	> 100 µM (inactive)	> 100 µM (inactive)	> 100 µM (inactive)	> 100 µM (inactive)		> 100 µM (inactive)	> 100 µM (inactive)	> 100 µM (inactive)	> 100 µM	> 100 µM (inactive)		> 100 µM (inactive)	> 100 µM (inactive)		> 100 µM (inactive)	> 100 µM (inactive)		
COC(=S)OC1CC(n2cnc3c(N)ncnc32)OC1CO[Si](C)(C)C(C)(C)C (centres undefined)	18.8 µM (inactive)	33 µM (inactive)	12.1 µM (inactive)	16.8 µM (inactive)	18.5 µM (inactive)		14 µM (inactive)	17 µM (inactive)	31 µM (inactive)	16.8 µM			17.1 µM (inactive)	11.8 µM (inactive)		21.8 µM (inactive)	21.9 µM (inactive)		
C=CCC(O[Si](C)(C)C(C)(C)C)c1cc(O[Si](C)(C)C(C)(C)C)ccc1OC (centres undefined)		> 62.2 µM (inactive)	58.9 µM (inactive)				> 100 µM (inactive)		35.4 µM (inactive)	> 74.5 µM			> 71.8 µM (inactive)			> 53.6 µM (inactive)		> 100 µM (inactive)	> 70.3 µM (inactive)
